The results in this text go back to PubChem BioAssay (NCI).

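Briefly, cells in 96-well plates were exposed to five compound concentrations for 48 h, and endpoints were estimated by linear interpolation. TGI: total growth inhibition.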

Experiment in all cases: NCI tumour cell line growth inhibition, 48 h
Assay [1] has as its system ACHN renal.
The test system of assay [2] is HOP-62 NSCLC.
Assay [3] concerns LXFL 529 NSCLC.
The subject of assay [4] is M14 melanoma.
Assay [5] deals with TK-10 renal.
Assay [6] has as its system A498 renal.
Assay [7] relates to CAKI-1 renal.
Assay [8] relates to DLD-1 colon.
Assay [9] relates to DMS 114 small cell lung.
Assay [10] has as its system MALME-3M melanoma.
Assay [11] relates to MCF7 breast.
The test system of assay [12] is MOLT-4 leukemia.
The subject of assay [13] is NCI-H522 lung.
Assay [14] deals with NCI/ADR-RES ovarian.
For assay [15], the system named is P388 leukemia.
The test system of assay [16] is P388/ADR leukemia.
The subject of assay [17] is SF-295 CNS.
Assay [18] concerns SF-539 CNS.
For assay [19], the system named is SK-OV-3 ovarian.
In assay [20] the test system is SN12K1 renal.

Turning to `NCc1ccccc1-c1c2nc(c(-c3ccccc3CN)c3ccc([nH]3)c(-c3ccccc3CN)c3nc(c(-c4ccccc4CN)c4ccc1[nH]4)C=C3)C=C2`, the TGI in assay [1] is 35.3 µM; in assay [2], 60.4 µM; in assay [3] it was 46.5 µM; in [4], 48.7 µM; in assay [5], 63.1 µM.

Take `CC1(C)N=C(N)N=C(N)N1c1ccc(CCc2ccccc2)cc1`: the TGI is more than 100 µM in [6]; more than 100 µM in assay [7]; more than 100 µM in assay [8]; 52.5 µM in assay [9]; more than 80.2 µM in assay [10]; more than 76.7 µM in [11]. Further, the TGI was more than 100 µM in assay [12]; 33.9 µM in assay [13]; more than 100 µM in assay [14]; 12.3 µM in [15]; more than 100 µM in assay [16]; more than 100 µM in assay [17]. Moreover, the values for the TGI in [18], in [19] and in [20] were 82.8 µM, more than 100 µM and more than 100 µM, respectively.
